Measurements taken from patent US20190336583A1, “COMPOSITIONS AND METHODS FOR TREATING IRON OVERLOAD” (priority 2017, published 2019).

What was measured:
serum iron levels [1] = test: Effect of 1, 5, 10 and 50 mg subcutaneous hepcidin on serum iron levels in normal rats (Example 3); assay type: in vivo
Description: A study was designed to evaluate doses of 1, 5, 10, and 50 mg of hepcidin delivered subcutaneously and their effect on serum iron levels in normal rats (n=7/group).

serum iron levels [2] = test: Serum iron levels in expanded acute study in Sprague Dawley rats (Example 4)
Description: A study was designed to evaluate doses of 5, 25, and 50 mg/kg of hepcidin (human equivalent dose of 0.8, 4, 8 mg/kg, respectively), delivered SC to Sprague Dawley rats (n=9/sex/group).

[3] = normal rats, any dose level
[4] = Expanded acute toxicity study (NOAEL), single subcutaneous dose in dogs (Example 4); conditions: dog, in vivo
Description: (§1) Hepcidin was evaluated in two expanded, acute studies in rats and dogs. These studies were conducted to determine the no-observed adverse effect level (NOAEL). The NOAEL was determined to be 5 mg/kg/day in dogs due to various clinical and histopathological observations.

serum iron levels [5] = test: Effect of subcutaneous hepcidin on serum iron levels in mice (Example 1); assay type: in vivo; conditions: 50 μg dose subcutaneously, p<0.05
From the text: A study was designed to evaluate the effect of subcutaneous doses of hepcidin on serum iron levels in mice (n=6-7/group).

serum iron levels [6] = test: Effect of 50, 100 and 200 μg subcutaneous hepcidin on serum iron levels in mice (Example 2); assay type: in vivo; conditions: for serum iron levels compared to vehicle: p<0.01
Description: Conversely, 50 μg and 100 μg doses were elevated (p<0.01) compared to the vehicle at 24 hours post dose. The elevated levels of serum iron could be due to the system's reaction to the clearance of hepcidin. […] Mortality was likely related to the stress of the blood collection. Serum iron levels normalized 72 hours post dose.

[7] = Expanded acute toxicity study (NOAEL) in Sprague Dawley rats (Example 4); conditions: rat, in vivo
Description: as §1

CC[C@H](C)[C@@H]1NC(=O)[C@@H](NC(=O)[C@@H](NC(=O)[C@@H]2CCCN2C(=O)[C@H](Cc2ccccc2)NC(=O)[C@H](Cc2c[nH]cn2)NC(=O)[C@@H](NC(=O)[C@@H](N)CC(=O)O)[C@@H](C)O)[C@@H](C)CC)CSSC[C@@H](C(=O)N[C@@H](CCCCN)C(=O)N[C@H](C(=O)O)[C@@H](C)O)NC(=O)[C@@H]2CSSC[C@@H]3NC(=O)[C@@H]4CSSC[C@H](NC(=O)[C@H](Cc5ccccc5)NC1=O)C(=O)N[C@@H](CSSC[C@H](NC(=O)[C@H](CCCCN)NC(=O)[C@H](CO)NC(=O)[C@H](CCCNC(=N)N)NC(=O)[C@H](Cc1c[nH]cn1)NC3=O)C(=O)NCC(=O)N[C@@H](CCSC)C(=O)N2)C(=O)NCC(=O)N4 [hepcidin]
time at which serum iron levels returned to pre-dose levels (serum iron levels [1]; normal rats, 5 mg dose, post dose): 48 h
return of serum iron levels to pre-dose levels (serum iron levels [1]; normal rats, 10 mg and 50 mg dose groups, 72 hours post dose): did not return to pre-dose levels
effect on serum iron levels (serum iron levels [1]; normal rats, 50 mg, at 72 hours): still demonstrated an effect
serum iron levels (serum iron levels [1]; normal rats, 1, 5, 10 and 50 mg subcutaneously, all dose levels): significant decrease in serum iron levels
time of lowest serum iron concentrations (serum iron levels [1]; normal rats, post dose, all three doses): 4 h
average serum iron levels compared to vehicle and pre-dose levels (serum iron levels [2]; Sprague Dawley rats, 5, 25 and 50 mg/kg SC, all doses): significantly decreased
time of lowest serum iron level (serum iron levels [2]; Sprague Dawley rats, post dose, all three doses): 4 h
lethargy [3]: No lethargy was observed
administration site microscopic findings, Day 15: cystic space [4]: cystic space
administration site microscopic findings, Day 15: fibrosis [4]: fibrosis
other adverse reactions [4]: hunched posture, soft feces, gross pathology finding of “thick,” and subcutaneous fibrosis, mixed cell infiltration, and cysts present at recovery period
administration site microscopic findings, Day 4 ([4]; 25 mg/kg): mixed cell infiltration in the administration site
decrease in serum iron levels compared to vehicle (average) (serum iron levels [5]; 4 hours post dose): 40%
decrease in serum iron levels compared to vehicle (average) (serum iron levels [5]; 24 hours post dose): 15%
serum iron levels compared to vehicle (serum iron levels [6]; mice, 50 μg and 100 μg doses, 24 hours post dose): elevated
serum iron levels compared to vehicle (serum iron levels [6]; mice, 50, 100 and 200 μg subcutaneously (all three doses), 4 hours post dose): significant decrease in serum iron levels
serum iron levels (serum iron levels [6]; mice, 72 hours post dose): normalized
mortality (serum iron levels [6]; mice, following the 4-hour blood collection, likely related to the stress of the blood collection): One mouse died
toxicokinetic (TK) effect, male vs female [7]: comparable for both sexes
